# Laboratory results taken from patent publication US20250154195A1, “NOVEL BETULIN DERIVATIVES, AND THEIR MANUFACTURING METHOD AND USE AS SURFACTANT” (priority 2022, published 2025).
# Test: Critical micelle concentration (CMC) in water by the stalagmometric method (surface tension vs. concentration)
# Assay type: physicochemical
# Details: not given
# Method: (§1) CMC of mono and di-hydrophilic moiety derivatized betulin derivatives were determined according to the stalagmometric method, which is one of the most common methods for measuring surface tension. Samples were prepared at different concentration of mono and di-hydrophilic moiety derivatized betulin derivatives. The surface tension of samples was calculated from the number of drops obtained by stalagmometer. CMC was calculated by plotting surface tensions vs. concentrations of sample.
# CMCs of mono-glycosylated betulin, di-glycosylated betulin, mono-(poly) ethoxylated-carbonated betulin and di-(poly) ethoxylated betulin were determined in water, respectively. Surface tensions of samples obtained in above examples were determined at different concentrations according to the stalagmometric method.
# as §1, with “mono-hydrophilic” for “mono and di-hydrophilic”
# CMCs of two mono-hydrophilic functionalized betulin at C28-hydroxy and C3-hydroxy group were determined in water, respectively. Surface tensions of samples obtained in above examples were determined at different concentrations according to the stalagmometric method. And CMC was obtained as 0.6 mM (Betulin-carbonate-polyether (PEA) from Example 10), and 0.5 mM (Betulin-carbonate-polyether (PEG) from Example 11), respectively, by plotting surface tensions vs. concentrations of sample.
row,Compound,CMC [mM]
1,"C=C(C)[C@@H]1CC[C@]2(COC3OC(CO)C(O)C(O)C3O)CC[C@]3(C)C(CCC4[C@@]5(C)CC[C@H](OC6OC(CO)C(O)C(O)C6O)C(C)(C)C5CC[C@]43C)C12 (some centres unmarked) [di-glycosylated betulin, diglucose-betulin]",1.0
2,"C=C(C)[C@@H]1CC[C@]2(COC3OC(CO)C(O)C(O)C3O)CC[C@]3(C)C(CCC4[C@@]5(C)CC[C@H](O)C(C)(C)C5CC[C@]43C)C12 (some centres unmarked) [mono-glycosylated betulin, glucose-betulin]",0.8
3,Betulin-carbonate-polyether (PEA),0.6
4,Betulin-carbonate-polyether (PEG),0.5

# Test: not given
# Details: non-ionic surfactants, literature values; cited from earlier work
row,Compound,CMC [mM]
1,Brij 35,0.1
2,Triton X-100,0.2
3,fructose oleate,0.4
4,sucrose monolaurate,0.45
